pIC50: −log10 of the molar value.
Experiments:
Format in all cases: cell-based
[1] = tested on: SDMA (PRMT5 activity) in HAP1 MTAP-deleted cell line; test: SDMA in-cell western assay, HAP1 MTAP-deleted; settings: for pIC50 / IC90: Homo sapiens, SDMA in-cell western, HAP1 MTAP-deleted cells, 24 hours compound incubation; for Hap1 MTAP intact/deleted ratio: ratio of SDMA IC50 in HAP1 MTAP-intact to HAP1 MTAP-deleted cell line
Procedure: (§1) The SAM-cooperative PRMT5 inhibitor, GSK3326595, was sourced from SelleckChem and maintained as a 10 mM DMSO stock. All test compounds are maintained as 10 mM DMSO stocks
(§2) On Day 0, MTAP-intact or MTAP-deleted cells are seeded in a 384-well plate, and incubated in a humidified, 5% CO2 tissue culture incubator for 16-24 hours. On Day 1, the test compounds are dispensed to wells at defined concentrations using a Tecan D300e digital dispenser (n=4), and the volume of DMSO is normalized to highest class volume. Each plate includes wells dosed with defined concentrations of GSK33226595 as a plate control. The compounds are incubated with cells for 24 hours in a humidified, 5% CO2 tissue culture incubator.
(§3) On Day 2, the compound-treated cells are fixed with a final concentration of 4% formaldehyde. The cells are then washed/permeabilized with 1×PBS+0.1% Triton X-100, and then blocked with 5% goat serum/1×TBS.
(§4) The cells are washed with 1×PBS+0.1% Triton X-100, and then washed again with ddH20. The plates are then imaged using a NIR fluorescent imager (LiCor Odyssey).
(§5) For data analysis, the SDMA signal is normalized to the DRAQ5 signal. Assay background is determined by the signal from wells treated with 1 μM GSK3326595, and subtracted from every well. The data are plotted as % of the DMSO control wells for the MTAP-intact and the MTAP-deleted cell lines independently, and fitted to the 4-parameter logistic (4-PL) Hill equation with maximal effect constrained to 0. The fit was performed using GraphPad Prism or the default IC50 fitting procedure in Dotmatics Studies 5.4 as part of a customized data analysis protocol.

[2] = tested on: HAP1 MTAP-deleted cell line; test: Viability assay (CellTiter-Glo), HAP1 MTAP-deleted; settings: Homo sapiens, 168 h, HAP1 MTAP-deleted cells, 7 days
Procedure: All test compounds are maintained as 10 mM DMSO stocks.
On Day 0, MTAP-intact and MTAP-deleted cells are seeded in a 96-well plate, and incubated in a humidified, 5 or 10% CO2 tissue culture incubator for 16-24 hours. On Day 1, the test compounds are dispensed to wells at defined concentrations using a Tecan D300e digital dispenser (n=3), and the volume of DMSO is normalized to highest class volume (0.2%). The compound-treated plates are incubated for 7 days in a humidified, 5 or 10% CO2 tissue culture incubator.
On Day 7, the plates are removed from the tissue culture incubator and allowed to equilibrate to room temperature. Then either a ½% volume CellTiter-Glo Luminescent Cell Viability Assay reagent (Promega G7572) is added to each well, or the media is removed from every well and a 1:3 dilution of CellTiter-Glo 2.0 Cell Viability Assay reagent (Promega G9241) in 1×PBS is added. Ten minutes after addition, the luminescent signal is detected by an Envision plate reader. The data are plotted as % of the DMSO control wells for the MTAP-intact and the MTAP-deleted cell lines independently, and fitted to the 4-parameter logistic (4-PL) Hill equation with maximal effect constrained to 0. The fit was performed using GraphPad Prism or the default IC50 fitting procedure in Dotmatics Studies 5.4 as part of a customized data analysis protocol.

[3] = tested on: SDMA (PRMT5 activity) in HAP1 MTAP-intact cell line; test: SDMA in-cell western assay, HAP1 MTAP-intact; settings: Homo sapiens, SDMA in-cell western, HAP1 MTAP-intact cells, 24 hours compound incubation
Procedure: as §1, §2, §3, §4, §5

SMILES: CCc1cc(NC(=O)C(=O)N2C[C@@H](C)CC[C@@H]2c2ccc3sc(C4=C(C)CN(C)CC4)nc3c2)cnc1N [Compound 84, N-(6-amino-5-ethylpyridin-3-yl)-2-((2R,5S)-2-(2-(1,5-dimethyl-1,2,3,6-tetrahydropyridin-4-yl)benzo[d]thiazol-5-yl)-5-methylpiperidin-1-yl)-2-oxoacetamide]
- pIC50 [1]: > 8.30
- IC90 [1]: < 75 nM
- Hap1 MTAP intact/deleted ratio [1]: B (“B” indicates an IC50 ratio greater than or equal to 15 fold but lower than 30 fold)
- pIC50 [2]: > 7.00
- pIC50 [3]: < 7.30

SMILES: COc1ncc(NC(=O)C(=O)N2C[C@@H](C)CC[C@@H]2c2ccc3sc([C@@H](C)N(C)C)nc3c2)cc1C(N)=O [Compound 25, 2-methoxy-5-[[2-oxo-2-[(2R,5S)-5-methyl-2-[2-[(1R)-1-(dimethylamino)ethyl]-1,3-benzothiazol-5-yl]-1-piperidyl]acetyl]amino]pyridine-3-carboxamide]
- pIC50 [1]: 7.30 to 8.30
- IC90 [1]: 75 to 125 nM
- Hap1 MTAP intact/deleted ratio [1]: A (“A” indicates an IC50 ratio greater than or equal to 30 fold)
- pIC50 [2]: > 7.00
- pIC50 ([3]; HAP1, 24 h): < 7.30

SMILES: COc1ncc(NC(=O)C(=O)N2C[C@@H](C)CC[C@@H]2c2ccc3sc(C4=CCN(C)CCC4)nc3c2)cc1C(N)=O [Compound 46, 2-methoxy-5-(2-((2R,5S)-5-methyl-2-(2-(1-methyl-2,5,6,7-tetrahydro-1H-azepin-4-yl)benzo[d]thiazol-5-yl)piperidin-1-yl)-2-oxoacetamido)nicotinamide]
- pIC50 [1]: > 8.30
- IC90 [1]: < 75 nM
- Hap1 MTAP intact/deleted ratio [1]: B (“B” indicates an IC50 ratio greater than or equal to 15 fold but lower than 30 fold)
- pIC50 [2]: > 7.00
- pIC50 ([3]; HAP1, 24 h): 7.30 to 8.30

SMILES: C[C@H]1CC[C@H](c2ccc3sc(C4CCN(C)C(C)(C)C4)nc3c2)N(C(=O)C(=O)Nc2cnc(N)c(C3COC3)c2)C1 (single isomer, unassigned) [Compound 34]
- pIC50 [1]: > 8.30
- IC90 [1]: < 75 nM
- Hap1 MTAP intact/deleted ratio [1]: C (“C” indicates an IC50 ratio of less than 15 fold)
- pIC50 [2]: > 7.00
- pIC50 ([3]; HAP1, 24 h): 7.30 to 8.30

SMILES: CCc1cc(NC(=O)C(=O)N2C[C@@H](C)CC[C@@H]2c2ccc3sc([C@@H]4C[C@H](C)N(C)C4)nc3c2)cnc1N (racemic) [Compound 16, N-(6-amino-5-ethyl-3-pyridyl)-2-oxo-2-[(2R,5S)-5-methyl-2-[2-[rac-(3S,5R)-1,5-dimethylpyrrolidin-3-yl]-1,3-benzothiazol-5-yl]-1-piperidyl]acetamide]
- pIC50 [1]: > 8.30
- IC90 [1]: < 75 nM
- Hap1 MTAP intact/deleted ratio [1]: A (“A” indicates an IC50 ratio greater than or equal to 30 fold)
- pIC50 [2]: > 7.00
- pIC50 ([3]; HAP1, 24 h): < 7.30

SMILES: COc1ncc(NC(=O)C(=O)N2C[C@@H](C)CC[C@@H]2c2ccc3sc(C4CCN(C)C4(C)C)nc3c2)cc1C(N)=O (mixture of isomers) [Compound 87, 2-methoxy-5-(2-((2R,5S)-5-methyl-2-(2-(rac-(S)-1,2,2-trimethylpyrrolidin-3-yl)benzo[d]thiazol-5-yl)piperidin-1-yl)-2-oxoacetamido)nicotinamide]
- pIC50 [1]: > 8.30
- IC90 [1]: < 75 nM
- Hap1 MTAP intact/deleted ratio [1]: A (“A” indicates an IC50 ratio greater than or equal to 30 fold)
- pIC50 [2]: > 7.00
- pIC50 ([3]; HAP1, 24 h): < 7.30

SMILES: COc1ncc(NC(=O)C(=O)N2C[C@@H](C)CC[C@@H]2c2ccc3sc([C@H](C)CN4CCCC4)nc3c2)cc1C(N)=O [Compound 15, 2-methoxy-5-[[2-oxo-2-[(2R,5S)-5-methyl-2-[2-[(1R)-1-methyl-2-pyrrolidin-1-yl-ethyl]-1,3-benzothiazol-5-yl]-1-piperidyl]acetyl]amino]pyridine-3-carboxamide]
- pIC50 [1]: > 8.30
- IC90 [1]: < 75 nM
- Hap1 MTAP intact/deleted ratio [1]: B (“B” indicates an IC50 ratio greater than or equal to 15 fold but lower than 30 fold)
- pIC50 [2]: > 7.00
- pIC50 ([3]; HAP1, 24 h): < 7.30

SMILES: COc1ncc(NC(=O)C(=O)N2C[C@@H](C)CC[C@@H]2c2ccc3sc([C@@H]4CCN(C)C[C@@H]4C)nc3c2)cc1C(N)=O (relative stereo) [Compound 12, 2-methoxy-5-[[2-oxo-2-[(2R,5S)-5-methyl-2-[2-[rel-(3R,4R)-1,3-dimethyl-4-piperidyl]-1,3-benzothiazol-5-yl]-1-piperidyl]acetyl]amino]pyridine-3-carboxamide]
- pIC50 [1]: > 8.30
- IC90 [1]: < 75 nM
- Hap1 MTAP intact/deleted ratio [1]: A (“A” indicates an IC50 ratio greater than or equal to 30 fold)
- pIC50 [2]: > 7.00
- pIC50 ([3]; HAP1, 24 h): < 7.30

SMILES: COc1ncc(NC(=O)C(=O)N2C[C@@H](C)CC[C@@H]2c2ccc3sc(C45CC(N(C)C)(C4)C5)nc3c2)cc1C(N)=O [Compound 86]
- pIC50 [1]: 7.30 to 8.30
- IC90 [1]: > 125 nM
- Hap1 MTAP intact/deleted ratio [1]: A (“A” indicates an IC50 ratio greater than or equal to 30 fold)
- pIC50 [2]: > 7.00
- pIC50 ([3]; HAP1, 24 h): < 7.30

SMILES: CCc1cc(NC(=O)C(=O)N2C[C@@H](C)CC[C@@H]2c2ccc3cn([C@H]4C[C@H](C)CN(C)C4)nc3c2)cnc1N (relative stereo) [Compound 85, N-(6-amino-5-ethylpyridin-3-yl)-2-((2R,5S)-2-(2-(1,5-dimethylpiperidin-3-yl)-2H-indazol-6-yl)-5-methylpiperidin-1-yl)-2-oxoacetamide]
- pIC50 [1]: > 8.30
- IC90 [1]: < 75 nM
- Hap1 MTAP intact/deleted ratio [1]: A (“A” indicates an IC50 ratio greater than or equal to 30 fold)
- pIC50 [2]: > 7.00
- pIC50 ([3]; HAP1, 24 h): < 7.30

SMILES: CCc1cc(NC(=O)C(=O)N2C[C@@H](C)CC[C@@H]2c2ccc3cc(C4CCN(C)CC4)cnc3c2)cnc1N [Compound 95, N-(6-amino-5-ethylpyridin-3-yl)-2-((2R,5S)-5-methyl-2-(3-(1-methylpiperidin-4-yl)quinolin-7-yl)piperidin-1-yl)-2-oxoacetamide]
- pIC50 [1]: > 8.30
- IC90 [1]: < 75 nM
- Hap1 MTAP intact/deleted ratio [1]: B (“B” indicates an IC50 ratio greater than or equal to 15 fold but lower than 30 fold)
- pIC50 [2]: > 7.00
- pIC50 ([3]; HAP1, 24 h): 7.30 to 8.30

SMILES: COc1ncc(NC(=O)C(=O)N2C[C@@H](C)CC[C@@H]2c2cccc(OC[C@@H]3CCCN3C)c2)cc1C(N)=O [Compound 26, 2-methoxy-5-(2-((2R,5S)-5-methyl-2-(3-(((S)-1-methylpyrrolidin-2-yl)methoxy)phenyl)piperidin-1-yl)-2-oxoacetamido)nicotinamide]
- pIC50 [1]: 7.30 to 8.30
- IC90 [1]: > 125 nM
- Hap1 MTAP intact/deleted ratio [1]: A (“A” indicates an IC50 ratio greater than or equal to 30 fold)
- pIC50 [2]: 6.00 to 7.00
- pIC50 ([3]; HAP1, 24 h): < 7.30

SMILES: CCc1cc(NC(=O)C(=O)N2C[C@@H](C)CC[C@@H]2c2cccc(OCC3CCCN3C)c2)cnc1N (relative stereo) [Compound 69, N-(6-amino-5-ethyl-3-pyridyl)-2-oxo-2-[(2R,5S)-5-methyl-2-[3-[[rel-(2R)-1-methylpyrrolidin-2-yl]methoxy]phenyl]-1-piperidyl]acetamide]
- pIC50 [1]: > 8.30
- IC90 [1]: < 75 nM
- Hap1 MTAP intact/deleted ratio [1]: A (“A” indicates an IC50 ratio greater than or equal to 30 fold)
- pIC50 [2]: > 7.00
- pIC50 ([3]; HAP1, 24 h): < 7.30

SMILES: CCc1cc(NC(=O)C(=O)N2C[C@@H](C)CC[C@@H]2c2ccc3sc(C[C@H](C)N(C)C)nc3c2)cnc1N [Compound 55, N-(6-amino-5-ethylpyridin-3-yl)-2-((2R,5S)-2-(2-((S)-2-(dimethylamino)propyl)benzo[d]thiazol-5-yl)-5-methylpiperidin-1-yl)-2-oxoacetamide]
- pIC50 [1]: > 8.30
- IC90 [1]: < 75 nM
- Hap1 MTAP intact/deleted ratio [1]: B (“B” indicates an IC50 ratio greater than or equal to 15 fold but lower than 30 fold)
- pIC50 [2]: > 7.00
- pIC50 ([3]; HAP1, 24 h): 7.30 to 8.30
